This is an account of results in paper PMC7937321 (Genes and Environment, 2021).

Molecules are shown by their SMILES.

One series has as its system rodent. The following applies: cited from earlier work.
Series [1] relates to L5178Y mouse lymphoma cells. The settings on record: cited from earlier work.
The test system of series [2] is human lymphoblastoid TK6 cells, thymidine kinase gene. Kind of series: TK gene mutation assay (TK6 assay, OECD TG490). The settings on record: for MF: graph sheet Short-S9.
Series [3] deals with TA1538, TA100, TA98, TA97, TA1535. The following applies: ref [18]-[40], Table 2, cited from earlier work.
The test system of series [4] is human lymphoblastoid TK6 cells, thymidine kinase gene.

Turning to `CNc1ccc(N(CCO)CCO)cc1[N+](=O)[O-]` [HC blue No. 1, reference compound], in the series with rodent (ref [84]), the carcinogenicity classification entry is reported as “carcinogen”. For the same compound, the “mutagenicity in MLA (+S9)” value in series [1] (+S9, ref [68]) was “positive with weak response”. Moreover, the “MLA (−S9)” value in series [1] (substance with high purity, −S9, ref [27], [85]) is listed as “negative”.
Take `IC(I)I` [Iodoform]: the MF amounted to 2.7 in series [2] (6.25 μg/mL, -S9 mix); 3.0 in series [2] (50.0 μg/mL, -S9 mix); 4.5 in series [2] (100.0 μg/mL, -S9 mix); 3.2 in series [2] (200.0 μg/mL, -S9 mix). Besides, the “%SG” value came out at 88.0% in series [2] (6.25 μg/mL, short treatment, -S9 mix); 48.2% in series [2] (50.0 μg/mL, short treatment, -S9 mix); 69.7% in series [2] (100.0 μg/mL, short treatment, -S9 mix); 80.4% in series [2] (200.0 μg/mL, short treatment, -S9 mix); 71.6% in series [2] (24 h treatment -S9 mix, dose 10.00 μg/mL); 71.8% in series [2] (24 h treatment -S9 mix, dose 20.00 μg/mL). For the same compound, the “%SG” value was 87.1% in series [2] (24 h treatment -S9 mix, dose 30.00 μg/mL); 100.0% in series [2] (24 h treatment -S9 mix, dose 40.0 μg/mL); 100.0% in series [2] (24 h treatment -S9 mix, dose 50.0 μg/mL); 79.6% in series [2] (24 h treatment -S9 mix, dose 60.0 μg/mL); 85.6% in series [2] (24 h treatment -S9 mix, dose 70.0 μg/mL); 65.1% in series [2] (Short treatment +S9 mix, dose 25 μg/mL). Moreover, the “%SG” value in series [2] (Short treatment +S9 mix, dose 50 μg/mL) came to 57.3%; in series [2] (Short treatment +S9 mix, dose 100 μg/mL), 65.1%; in series [2] (Short treatment +S9 mix, dose 200 μg/mL) it was 61.0%. Besides, in series [3] (with S9), the “Bacterial reverse mutation assay, With S9” value was “Pos”. Moreover, in series [3] (without S9), the “Bacterial reverse mutation assay, Without S9” value is on record as “Pos”. Besides, in the series with rodent (rodent, ref [20]-[41], Table 2), the “Carcinogenicity Studies” value was “Neg”. The “MF at high-dose levels” value in series [4] is given as “dose-dependent increase in MF”. The “TK6 assay overall judgment” value in series [4] is listed as “negative”. Further, the “TK6 assay result (mutant frequency increase, judgment)” value in series [4] is recorded as “Negative”. In addition, in series [4], the “TK mutation assay, Long term” value is on record as “Neg”. In addition, in series [4], the “TK mutation assay, With S9” value is listed as “Neg”. The “TK mutation assay, Without S9” value in series [4] was “Neg”.
